Experimental data from patent US11708344B2, “Flavone derivatives for the treatment and prophylaxis of hepatitis B virus disease” (Hoffmann-La Roche Inc., priority 2018, dated 2023).
pIC50: −log10 of the molar value.

Experiments:
[1] = system: HBeAg (surrogate marker for cccDNA) in HepDES19 cells; experiment: Engineered HepDES19 primary screen assay (HBeAg ELISA); type: cell-based, HBV; details: Hepatitis B virus, HepDES19, 120 h, read-out: IC50 (HBeAg level, HepDES19 primary screen assay), HepDES19 cells, 5 days compound incubation, HBeAg ELISA
Method in brief: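 HepDES19 cells were induced by Tet withdrawal for 8 days, then treated with half-log compound dilutions (1% DMSO final) for 5 days at 37 °C. HBeAg was measured by ELISA as the cccDNA surrogate, viability by CCK-8, and IC50 from a 4-parameter logistic fit.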

[2] = system: HBsAg in HBV-infected PHH; experiment: Cryopreserved primary human hepatocytes (PHH) HBV infection assay, extracellular HBsAg (CLIA); type: cell-based; details: Hepatitis B virus, Hepatocyte, 216 h, read-out: HBsAg IC50, Cryopreserved PHH infected with HBV, 9 days post-compound treatment, extracellular HBsAg
Method in brief: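 Cryopreserved PHH were infected with 5.8×10^6 HBV genome equivalents in medium with 4% PEG8000 and 1% DMSO. After 9 days of treatment, extracellular HBsAg was measured by CLIA, and IC50 was derived from a 4-parameter logistic fit.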

## O=c1cc(-c2ccc(Br)cc2OCCO[C@H]2C[C@@H](C(=O)O)C2)oc2c(Cl)cccc12 [Example C003-A, Cis-3-[2-[5-bromo-2-(8-chloro-4-oxo-chromen-2-yl)phenoxy]ethoxy]cyclobutanecarboxylic acid]
[1]
  pIC50: 5.97
[2]
  pIC50: 5.06
